The test system of experiment [1] is human kinases (456 kinases). Put plainly: KINOMEscan in vitro kinase profiling (primary screen binding interactions, % Ctrl, S-score). The note with it: for interaction with the 456 kinases tested: screened at 1 μM; for S-score, type S1 / S-score, type S10 / Number of hits/number of kinases, S10 / Number of hits/number of kinases, S1 / Kinase targets, S10 / Kinase targets, S1: tested at 1 μM; for S-score, type S1: S(1)=(number of kinases with % Ctrl<1)/(number of kinases tested); for S-score, type S10: S(10)=(number of kinases with % Ctrl <10)/(number of kinases tested); for Number of hits/number of kinases, S10: hits with % Ctrl <10; for Number of hits/number of kinases, S1: hits with % Ctrl<1; for Kinase targets, S10: kinases with % Ctrl <10; for Kinase targets, S1: kinases with % Ctrl<1. On the procedure: An in vitro kinase profiling was conducted in order to evidence the absence of protein kinase inhibition by the compounds of the invention.
DiscoveRx (Ambit Biosciences) has developed a high-throughput system (KINOMEscan™) for screening of compounds against large numbers of human kinases (456 kinases).
The compounds of the invention were screened at the concentration of 1 μM, and results for primary screen binding interactions were reported as percent control (% Ctrl), where lower numbers indicate stronger hits. DMSO is used as a negative control (100% Ctrl) while a high affinity compound is used as a positive control (0% Ctrl). % Ctrl is calculated as follow: […]
Selectivity Score or S-score is a quantitative measure of compound selectivity. It is calculated by dividing the number of kinases that compounds bind to by the total number of distinct kinases tested, excluding mutant variants. S(10)=(number of kinases with % Ctrl <10)/(number of kinases tested), S(1)=(number of kinases with % Ctrl<1)/(number of kinases tested).

Another experiment concerns HL60. Put plainly: CellTiter-Blue cell-based survival/proliferation assay, HL60 (leukemia). The note with it: Homo sapiens, HL-60; HL60 cells, 48 h; read-out: Anti-tumoral activity (measured IC50), Leukemia HL60. The protocol:
(§1) Compounds of formula (I) were tested against a panel of about 34 human tumor cell lines representing 17 cancer type, namely leukemia (represented by 1 cell line), lymphoma (4 cell lines), myeloma (1 cell line), colorectal (2 cell lines), head and neck (3 cell lines), lung (3 cell lines), melanoma (2 cell lines), pancreas (2 cell lines), prostate (2 cell lines), ovary (2 cell lines) breast (2 cell lines), kidney (2 cell lines), stomach (2 cell lines), liver (2 cell lines), glioblastoma (2 cell lines), osteosarcoma (1 cell line), Ewing Sarcoma (1 cell line).
(§2) CellTiter-Blue cell-based survival/proliferation assay (Promega G8080) was performed on tumor cell lines. A total of 1.10^4 cells/well/50 μl were seeded in a 96-wells plate. Treatment was initiated by addition of a 2× drug solution of 1/10 serial dilutions ranging from 0 to 10 μM. Cells were grown for 48 h at 37° C. and then incubated with 10 μl/well of Promega CellTiter-Bleue reagent for 4 h at 37° C. The amount of resorufin dye formed was quantified by its fluorescence emission at 590 nm using a scanning multiwell spectrophotometer (OPTIMA, BMG labtech, France). A blank well without cells was used as a background control for the spectrophotometer.
Background: Resazurin is reduced to fluorescent resorufin, in cell work by metabolically active cells.

The next experiment relates to OPM2. Put plainly: CellTiter-Blue cell-based survival/proliferation assay, OPM2 (myeloma). Conditions: Homo sapiens, OPM-2; OPM2 cells, 48 h; read-out: Anti-tumoral activity (measured IC50), Myeloma OPM2. The protocol: as §1, §2
The subject of the next experiment is A498. The experiment can be described thus: CellTiter-Blue cell-based survival/proliferation assay, A498. Conditions: Homo sapiens, Kidney, 48 h. The protocol:
as §1, §2

The subject of the next experiment is A549. Put plainly: CellTiter-Blue cell-based survival/proliferation assay, A549. The note with it: Homo sapiens, Lung, 48 h. On the procedure: as §1, §2
In another experiment the test system is ACHN. The experiment can be described thus: CellTiter-Blue cell-based survival/proliferation assay, ACHN. Conditions: Homo sapiens, Kidney, 48 h. On the procedure: as §1, §2
The next experiment relates to AGS. The experiment can be described thus: CellTiter-Blue cell-based survival/proliferation assay, AGS. Conditions: Homo sapiens, Stomach, 48 h. On the procedure:
as §1, §2

The next experiment relates to BT20. Put plainly: CellTiter-Blue cell-based survival/proliferation assay, BT20. The note with it: Homo sapiens, BT-20, Breast, 48 h. On the procedure:
as §1, §2

The test system of another experiment is BXPC3. Put plainly: CellTiter-Blue cell-based survival/proliferation assay, BXPC3. Conditions: Homo sapiens, BXPC-3, Pancreas, 48 h. On the procedure: as §1, §2
A further experiment deals with CALU6. The experiment can be described thus: CellTiter-Blue cell-based survival/proliferation assay, CALU6. Conditions: Homo sapiens, Calu-6, Lung, 48 h. On the procedure: as §1, §2
The next experiment deals with CLS354. Put plainly: CellTiter-Blue cell-based survival/proliferation assay, CLS354. The note with it: Homo sapiens, CLS-354; Head & Neck; CLS354_4; 48 h. The protocol: as §1, §2
In the next experiment the test system is DLD1. Put plainly: CellTiter-Blue cell-based survival/proliferation assay, DLD1. The note with it: Homo sapiens, DLD-1; Colorectal; DLD_1; 48 h. The protocol: as §1, §2
Another experiment relates to DU145. Put plainly: CellTiter-Blue cell-based survival/proliferation assay, DU145. Conditions: Homo sapiens, DU-145, Prostate, 48 h. On the procedure: as §1, §2
In a further experiment the test system is H1299. Put plainly: CellTiter-Blue cell-based survival/proliferation assay, H1299. The note with it: Homo sapiens, NCI-H1299, Lung, 48 h. The protocol: as §1, §2
Another experiment concerns HCT116. Put plainly: CellTiter-Blue cell-based survival/proliferation assay, HCT116. The note with it: Homo sapiens, HCT-116, Colorectal, 48 h. The protocol:
as §1, §2

The subject of another experiment is HEP2. The experiment can be described thus: CellTiter-Blue cell-based survival/proliferation assay, HEP2. The note with it: Homo sapiens, HEp-2, Head & Neck, 48 h. On the procedure:
as §1, §2

The test system of a further experiment is HEPG2. Put plainly: CellTiter-Blue cell-based survival/proliferation assay, HEPG2. Conditions: Homo sapiens, Liver, 48 h. The protocol: as §1, §2
Another experiment concerns HGC27. Put plainly: CellTiter-Blue cell-based survival/proliferation assay, HGC27. Conditions: Homo sapiens, HGC-27, Stomach, 48 h. On the procedure: as §1, §2
The subject of the next experiment is MDAMB231. The experiment can be described thus: CellTiter-Blue cell-based survival/proliferation assay, MDAMB231. Conditions: Homo sapiens, MDA-MB-231, Breast, 48 h. On the procedure: as §1, §2
The next experiment deals with MESSA. Put plainly: CellTiter-Blue cell-based survival/proliferation assay, MESSA. The note with it: Homo sapiens, MES-SA, Ovary, 48 h. On the procedure:
as §1, §2

The next experiment relates to PANC1. Put plainly: CellTiter-Blue cell-based survival/proliferation assay, PANC1. Conditions: Homo sapiens, PANC-1; Pancreas; PANC_1; 48 h. On the procedure:
as §1, §2

Another experiment relates to PC3. The experiment can be described thus: CellTiter-Blue cell-based survival/proliferation assay, PC3. Conditions: Homo sapiens, PC-3, Prostate, 48 h. On the procedure: as §1, §2
A further experiment relates to PLCPRF5. The experiment can be described thus: CellTiter-Blue cell-based survival/proliferation assay, PLCPRF5. The note with it: Homo sapiens, PLC-PRF-5; Liver; PLC_PRF5; 48 h. The protocol: as §1, §2
Another experiment deals with SW579. The experiment can be described thus: CellTiter-Blue cell-based survival/proliferation assay, SW579. The note with it: Homo sapiens, Head & Neck, 48 h. The protocol:
as §1, §2

Another experiment relates to TOV112D. The experiment can be described thus: CellTiter-Blue cell-based survival/proliferation assay, TOV112D. The note with it: Homo sapiens, Ovary, 48 h. The protocol:
as §1, §2

The structures appear in SMILES notation. Entries after “also recorded” stand apart in the source; their conditions may differ. Where only a bound is given, the exact number is not on record here.

The values that follow come from US20180202388A1, “PISTON FOR AN INTERNAL COMBUSTION ENGINE AND METHOD FOR PRODUCING THE PISTON FOR AN INTERNAL COMBUSTION ENGINE” (FEDERAL-MOGUL NURNBERG GMBH, priority 2015, published 2018).

Take `CCOCc1ccc(C)c(Nc2nc(-c3ccc(N4CCNC4=O)cc3)cs2)c1` [Example 003, 1-{4-[2-(5-Ethoxymethyl-(2-methyl-phenylamino))-thiazol-4-yl]-phenyl}-imidazolidin-2-one]: in experiment [1], the “interaction with the 456 kinases tested” value was “do not efficiently interact”; the “S-score, type S1” value is 0.002; the “S-score, type S10” value is 0.009; the “Number of hits/number of kinases, S10” value is on record as 4/456. Moreover, in [1], the “Number of hits/number of kinases, S1” value is on record as 1/456; the “Kinase targets, S10” value is on record as “KIT, KIT V559D,; also recorded: KIT L576P”; the “Kinase targets, S1” value is on record as “PDGFRB”.
Consider `CCOCc1ccc(C)c(Nc2ncc(-c3ccc(N4CCNC4=O)cc3)o2)c1` [Example 006, 1-{4-[2-(5-Ethoxymethyl-(2-methyl-phenylamino))-oxazol-5-yl]-phenyl}-imidazolidin-2-one], for which, in experiment [1], the “interaction with the 456 kinases tested” value is recorded as “do not efficiently interact”; the “S-score, type S1” value was 0.000; the “S-score, type S10” value is on record as 0.000; the “Number of hits/number of kinases, S10” value was 0/456. Also, in experiment [1], the “Number of hits/number of kinases, S1” value is listed as 0/456 and the “Kinase targets, S1” value is “None”.
As to `CCOCc1ccc(C)c(Nc2ncc(-c3ccc(-n4cccn4)cc3)o2)c1` [Example 033, (5-Ethoxymethyl-2-methyl-phenyl)-[5-(4-pyrazol-1-yl-phenyl)-oxazol-2-yl]-amine], in experiment [1], the “interaction with the 456 kinases tested” value is recorded as “do not efficiently interact”; the “S-score, type S1” value is 0.000; the “S-score, type S10” value was 0.002; the “Number of hits/number of kinases, S10” value was 1/456. For the same molecule, in experiment [1], the “Number of hits/number of kinases, S1” value is reported as 0/456 and the “Kinase targets, S10” value was “CDKL3”.
As for `CCOCc1ccc(C)c(Nc2nc(-c3ccc(-n4cccn4)nc3)cs2)c1` [Example 062, 4-(6-(1H-pyrazol-1-yl)pyridin-3-yl)-N-(5-(ethoxymethyl)-2-methylphenyl)thiazol-2-amine], the IC50 (commonly the point on the concentration scale where inhibition reaches its midpoint) in the experiment on HL60 is 100 to 500 nM; in the experiment on OPM2 it was 100 to 500 nM; in the experiment with A498, > 1000 nM; with A549, > 1000 nM; in the experiment on ACHN, > 1000 nM; with AGS, > 1000 nM. Also, the IC50 with BT20 is > 1000 nM; in the experiment on BXPC3, > 1000 nM; in the experiment with CALU6, > 1000 nM; in the experiment with CLS354, 500 to 1000 nM; in the experiment with DLD1, > 1000 nM; in the experiment on DU145, > 1000 nM. In addition, the IC50 was > 1000 nM with H1299; > 1000 nM in the experiment on HCT116; 500 to 1000 nM in the experiment on HEP2; > 1000 nM with HEPG2; > 1000 nM in the experiment with HGC27; > 1000 nM with MDAMB231. Further, the half-maximal inhibitory concentration (IC50) in the experiment on MESSA is > 1000 nM; with PANC1, > 1000 nM; in the experiment on PC3 it was > 1000 nM; in the experiment on PLCPRF5 it was > 1000 nM; with SW579 it was > 1000 nM; in the experiment with TOV112D, ≤ 100 nM.
